Experimental data taken from patent publication US9586931B2 (Merck Sharp & Dohme Corp., priority 2012, dated 2017).
Values joined by “and” are separate entries in the source; they are usually repeats but may differ in a detail not shown here. Identical values can stand only once.

What follows are compounds tested against T1, recombinant human GST-Syk (Homo sapiens, UniProt P43405) (assay: Homogeneous Time-Resolved Fluorescence (HTRF) assay for the recombinant human Syk enzyme). Conditions: recombinant human GST-Syk 5 pM, ATP 25 μM, 10-dose titration 10 μM to 0.508 nM; read-out: rhSYK Activity IC50.
T1 construct: purchased Carna Biosciences 08-176
Format: biochemical
Method: Syk inhibition may be determined using the following assay protocol:
Homogeneous Time-Resolved Fluorescence (HTRF) assay for the recombinant human Syk enzyme: A recombinant GST-hSyk fusion protein was used to measure potency of compounds to inhibit human Syk activity. […] Final volume of the reaction was 10 μL. Phosphorylation of the peptide was allowed to proceed for 45 minutes at room temperature. To quench the reaction and detect the phosphorylated product, 2 nM of a Europium-anti-phosphotyrosine antibody (Perkin Elmer #AD0161) and 70 nM SA-APC (Perkin-Elmer #CR130-100) were added together in 15 mM Tris pH 7.5, 40 mM EDTA, 0.01% tween 20. Final volume of the quenching solution was 10 μL. The resulting HTRF signal was measured after 30 minutes on an EnVision (Perkin-Elmer) reader using a time-resolved fluorescence protocol.

Compound | IC50
4-{1-[4-(6-{[4-(cyclohexyloxy)pyridin-2-yl]amino}-4-methylpyridin-2-yl)-1H-1,2,3-triazol-1-yl]ethyl}benzoic acid [Example 2.7] | 16.7 nM
Cc1cc(Nc2cc(C(F)(F)F)ccn2)nc(-c2cn(C3CCC(C(=O)O)CC3)nn2)c1 (mixture of isomers) [Example 5.46, 4-[4-(4-methyl-6-{[4-(trifluoromethyl)pyridin-2-yl]amino}pyridin-2-yl)-1H-1,2,3-triazol-1-yl]cyclohexane-carboxylic acid] | 4.9 nM
COC(=O)C1CCC(n2cc(-c3cc(C)cc(Nc4nccc(C(F)(F)F)n4)c3)nn2)CC1 (mixture of isomers) [Example 5.99, methyl 4-[4-(3-methyl-5-{[4-(trifluoromethyl)pyrimidin-2-yl]amino}phenyl)-1H-1,2,3-triazol-1-yl]cyclohexane-carboxylate] | 430 nM
Cc1cc(Nc2cc(C(F)(F)F)ccn2)nc(-c2cn(C(C)C(=O)NC3CCS(=O)(=O)C3)nn2)c1 (racemic) [Example 1.2, N-(1,1-Dioxidotetrahydrothiophen-3-yl)-2-[4-(4-methyl-6-{[4-(trifluoromethyl)pyridin-2-yl]amino}pyridin-2-yl)-1H-1,2,3-triazol-1-yl]propanamide (racemic)] | 42.8 nM
Cc1cc(Nc2nccc(C(F)(F)F)n2)cc(-c2cn(C[C@@]3(O)CC[C@H](C(=O)O)C(C)(C)C3)nn2)c1 (racemic) [Example 4.1, Racemic syn-4-Hydroxy-2,2-dimethyl-4-((4-(3-methyl-5-((4-(trifluoromethyl)pyrimidin-2-yl)amino)phenyl)-1H-1,2,3-triazol-1-yl)methyl)cyclohexane carboxylic acid] | 81.4 nM
Cc1cc(Nc2cc(C(F)(F)F)ccn2)nc(-c2cn(CC3CCCCO3)nn2)c1 (racemic) [Example 5.4, 4-methyl-6-[1-(tetrahydro-2H-pyran-2-ylmethyl)-1H-1,2,3-triazol-4-yl]-N-[4-(trifluoromethyl)pyridin-2-yl]pyridin-2-amine] | 63.5 nM
CCC(O)Cn1cc(-c2cc(C)cc(Nc3cc(C(F)(F)F)ccn3)n2)nn1 (racemic) [Example 5.5, 1-[4-(4-methyl-6-{[4-(trifluoromethyl)pyridin-2-yl]amino}pyridin-2-yl)-1H-1,2,3-triazol-1-yl]butan-2-ol] | 15.8 nM
Cc1cc(Nc2cc(C(F)(F)F)ccn2)nc(-c2cn(CC3(O)CCOC3)nn2)c1 (racemic) [Example 5.13, 3-{[4-(4-methyl-6-{[4-(trifluoromethyl)pyridin-2-yl]amino}pyridin-2-yl)-1H-1,2,3-triazol-1-yl]methyl}tetrahydrofuran-3-ol] | 11.7 nM
Cc1ccnc(Nc2cc(C)cc(-c3cn(CC(O)C(F)(F)F)nn3)n2)c1 (racemic) [Example 5.17, 1,1,1-trifluoro-3-(4-{4-methyl-6-[(4-methylpyridin-2-yl)amino]pyridin-2-yl}-1H-1,2,3-triazol-1-yl)propan-2-ol] | 128 nM
Cc1cc(Nc2cc(C(F)(F)F)ccn2)nc(-c2cn(C3CNCC3O)nn2)c1 (racemic) [Example 5.22, 4-[4-(4-methyl-6-{[4-(trifluoromethyl)pyridin-2-yl]amino}pyridin-2-yl)-1H-1,2,3-triazol-1-yl]pyrrolidin-3-ol] | 19.8 nM
COC(=O)C1CCC(n2cc(-c3cc(C)cc(Nc4cc(C(F)(F)F)ccn4)n3)nn2)c2ccccc21 (racemic) [Example 5.25, methyl 4-[4-(4-methyl-6-{[4-(trifluoromethyl)pyridin-2-yl]amino}pyridin-2-yl)-1H-1,2,3-triazol-1-yl]-1,2,3,4-tetrahydronaphthalene-1-carboxylate] | 525 nM
COC(=O)C(c1ccc(F)cc1)n1cc(-c2cc(C)cc(Nc3cc(C(F)(F)F)ccn3)n2)nn1 (racemic) [Example 5.26, methyl (4-fluorophenyl)[4-(4-methyl-6-{[4-(trifluoromethyl)pyridin-2-yl]amino}pyridin-2-yl)-1H-1,2,3-triazol-1-yl]acetate] | 62.9 nM
CCCC(C(=O)OCC)n1cc(-c2cc(C)cc(Nc3cc(C(F)(F)F)ccn3)n2)nn1 (racemic) [Example 5.27, ethyl 2-[4-(4-methyl-6-{[4-(trifluoromethyl)pyridin-2-yl]amino}pyridin-2-yl)-1H-1,2,3-triazol-1-yl]pentanoate] | 146 nM
CCOC(=O)C(CC)n1cc(-c2cc(C)cc(Nc3cc(C(F)(F)F)ccn3)n2)nn1 (racemic) [Example 5.28, ethyl 2-[4-(4-methyl-6-{[4-(trifluoromethyl)pyridin-2-yl]amino}pyridin-2-yl)-1H-1,2,3-triazol-1-yl]butanoate] | 76.5 nM
Cc1cc(Nc2cc(C(F)(F)F)ccn2)nc(-c2cn(CC(O)C(=O)O)nn2)c1 (racemic) [Example 5.39, 2-hydroxy-3-[4-(4-methyl-6-{[4-(trifluoromethyl)pyridin-2-yl]amino}pyridin-2-yl)-1H-1,2,3-triazol-1-yl]propanoic acid] | 44.9 nM
Cc1cc(Nc2cc(C(F)(F)F)ccn2)nc(-c2cn(C(C)c3ccc(C(=O)O)cc3)nn2)c1 (racemic) [Example 5.41, 4-{1-[4-(4-methyl-6-{[4-(trifluoromethyl)pyridin-2-yl]amino}pyridin-2-yl)-1H-1,2,3-triazol-1-yl]ethyl}benzoic acid] | 1.1 nM
Cc1cc(Nc2cc(C(F)(F)F)ccn2)nc(-c2cn(C(C)C(=O)O)nn2)c1 (racemic) [Example 5.43, 2-[4-(4-methyl-6-{[4-(trifluoromethyl)pyridin-2-yl]amino}pyridin-2-yl)-1H-1,2,3-triazol-1-yl]propanoic acid] | 35.2 nM and 17 nM
Cc1cc(Nc2nccc(C(F)(F)F)n2)cc(-c2cn(CC3CCO3)nn2)c1 (racemic) [Example 5.50, N-{3-methyl-5-[1-(oxetan-2-ylmethyl)-1H-1,2,3-triazol-4-yl]phenyl}-4-(trifluoromethyl)pyrimidin-2-amine] | 504 nM
Cc1cc(Nc2nccc(C(F)(F)F)n2)cc(-c2cn(CC(O)CF)nn2)c1 (racemic) [Example 5.52, 1-fluoro-3-[4-(3-methyl-5-{[4-(trifluoromethyl)pyrimidin-2-yl]amino}phenyl)-1H-1,2,3-triazol-1-yl]propan-2-ol] | 16.4 nM
COCC(O)Cn1cc(-c2cc(C)cc(Nc3nccc(C(F)(F)F)n3)c2)nn1 (racemic) [Example 5.53, 1-methoxy-3-[4-(3-methyl-5-{[4-(trifluoromethyl)pyrimidin-2-yl]amino}phenyl)-1H-1,2,3-triazol-1-yl]propan-2-ol] | 58.6 nM
Cc1cc(Nc2nccc(C(F)(F)F)n2)cc(-c2cn(CC(O)C(F)(F)F)nn2)c1 (racemic) [Example 5.54, 1,1,1-trifluoro-3-[4-(3-methyl-5-{[4-(trifluoromethyl)pyrimidin-2-yl]amino}phenyl)-1H-1,2,3-triazol-1-yl]propan-2-ol] | 29.4 nM
Cc1cc(Nc2nccc(C(F)(F)F)n2)cc(-c2cn(C3CCCCC3O)nn2)c1 (racemic) [Example 5.57, 2-[4-(3-methyl-5-{[4-(trifluoromethyl)pyrimidin-2-yl]amino}phenyl)-1H-1,2,3-triazol-1-yl]cyclohexanol] | 17 nM
Cc1cc(Nc2nccc(C(F)(F)F)n2)cc(-c2cn(CC(O)C(=O)O)nn2)c1 (racemic) [Example 5.61, 2-hydroxy-3-[4-(3-methyl-5-{[4-(trifluoromethyl)pyrimidin-2-yl]amino}phenyl)-1H-1,2,3-triazol-1-yl]propanoic acid] | 29.4 nM
Cc1cc(Nc2nccc(C(F)(F)F)n2)cc(-c2cn(C(C)C(=O)O)nn2)c1 (racemic) [Example 5.64, 2-[4-(3-methyl-5-{[4-(trifluoromethyl)pyrimidin-2-yl]amino}phenyl)-1H-1,2,3-triazol-1-yl]propanoic acid] | 41.4 nM
Cc1cc(Nc2nccc(C(F)(F)F)n2)cc(-c2cn(CC(O)CO)nn2)c1 (racemic) [Example 5.76, 3-[4-(3-methyl-5-{[4-(trifluoromethyl)pyrimidin-2-yl]amino}phenyl)-1H-1,2,3-triazol-1-yl]propane-1,2-diol] | 32.4 nM
Cc1cc(Nc2cc(C(F)(F)F)ccn2)nc(-c2cn(CC(=O)N3CCC(C(=O)O)CC3)nn2)c1 (racemic) [Example 5.80, 1-{[4-(4-methyl-6-{[4-(trifluoromethyl)pyridin-2-yl]amino}pyridin-2-yl)-1H-1,2,3-triazol-1-yl]acetyl}piperidine-4-carboxylic acid] | 24.5 nM
Cc1cc(Nc2cc(C(F)(F)F)ccn2)nc(-c2cn(CC(O)C(F)(F)F)nn2)c1 (racemic) [Example 5.83, 1,1,1-trifluoro-3-[4-(4-methyl-6-{[4-(trifluoromethyl)pyridin-2-yl]amino}pyridin-2-yl)-1H-1,2,3-triazol-1-yl]propan-2-ol] | 4.4 nM
Cc1cc(Nc2cc(C(F)(F)F)ccn2)nc(-c2cn(CC3CNC(=O)O3)nn2)c1 (racemic) [Example 5.84, 5-{[4-(4-methyl-6-{[4-(trifluoromethyl)pyridin-2-yl]amino}pyridin-2-yl)-1H-1,2,3-triazol-1-yl]methyl}-1,3-oxazolidin-2-one] | 2.1 nM
COC(=O)C(C)CCn1cc(-c2cc(C)cc(Nc3cc(C(F)(F)F)ccn3)n2)nn1 (racemic) [Example 5.85, methyl 2-methyl-4-[4-(4-methyl-6-{[4-(trifluoromethyl)pyridin-2-yl]amino}pyridin-2-yl)-1H-1,2,3-triazol-1-yl]butanoate] | 80 nM
